Our source for the IC50 and Ki values is US20180265515A1 (Genentech, Inc., priority 2015, published 2018).

In experiment [1] the test system is JAK1-dependent STAT6 phosphorylation downstream of IL-13 stimulation in BEAS-2B human bronchial epithelial cells. The experiment in a line: JAK1 pathway assay in BEAS-2B cells (IL-13 stimulated STAT6 phosphorylation, MSD). It counts as cell-based. As to conditions: read-out: P-STAT6 BEAS2B + IL13 IC50. In outline: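 BEAS-2B human bronchial epithelial cells, plated the day before in complete growth medium, were preincubated with compound for 1 hr at 37° C (0.2% DMSO final), then stimulated with IL-13 at its EC90 for 15 min. STAT6 phosphorylation in lysates was read by MSD; EC50 was taken as 50% inhibition versus DMSO control.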

In experiment [2] the target is T1, isolated recombinant JAK2 kinase domain (Homo sapiens, UniProt O60674).
T1 construct: The activity of the isolated recombinant JAK1 and JAK2 kinase domain was measured
T1 sequence (O60674 849-1124 limits assumed): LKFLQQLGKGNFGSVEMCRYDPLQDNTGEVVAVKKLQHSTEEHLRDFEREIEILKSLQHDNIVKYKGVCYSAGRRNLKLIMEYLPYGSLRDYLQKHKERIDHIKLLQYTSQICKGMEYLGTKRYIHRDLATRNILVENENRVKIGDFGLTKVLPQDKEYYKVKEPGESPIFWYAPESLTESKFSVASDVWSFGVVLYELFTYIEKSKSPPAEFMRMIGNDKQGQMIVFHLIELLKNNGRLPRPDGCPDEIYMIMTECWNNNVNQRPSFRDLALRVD
In words: JAK2 enzyme assay (Caliper LabChip, Ki). It is filed as biochemical. As to conditions: 25 μM ATP. In outline: (§1)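 Ki values fitted with Morrison tight-binding equation adjusted for ATP-competitive inhibition, using product-to-total peptide ratio read by Caliper LabChip. Reactions: isolated JAK1 or JAK2 kinase domain with N-terminal 5-carboxyfluorescein JAK3-derived peptide, 22° C for 30 min, quenched by EDTA.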

Experiment [3] deals with T2, isolated recombinant JAK1 kinase domain (Homo sapiens, UniProt P23458).
T2 construct: The activity of the isolated recombinant JAK1 and JAK2 kinase domain was measured
T2 sequence (P23458 875-1153 limits assumed): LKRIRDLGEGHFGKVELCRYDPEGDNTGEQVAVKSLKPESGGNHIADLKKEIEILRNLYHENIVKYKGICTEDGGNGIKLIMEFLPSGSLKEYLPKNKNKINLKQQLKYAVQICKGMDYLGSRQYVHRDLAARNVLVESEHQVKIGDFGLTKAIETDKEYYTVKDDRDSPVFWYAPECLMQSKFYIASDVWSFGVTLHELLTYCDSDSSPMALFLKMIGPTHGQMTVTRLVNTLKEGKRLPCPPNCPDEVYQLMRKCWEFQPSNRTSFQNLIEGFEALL
In words: JAK1 enzyme assay (Caliper LabChip, Ki). It counts as biochemical. As to conditions: recombinant JAK1 kinase domain, 25 μM ATP. In outline:
as §1

For `CC(C)Sc1ccc(OC(F)F)c(-c2nn(CC(=O)N3CCC(N4CCN(CC(=O)N5CCOCC5)CC4)CC3)cc2NC(=O)c2cnn3cccnc23)c1` [Example 152, N-[3-[2-(difluoromethoxy)-5-isopropylsulfanyl-phenyl]-1-[2-[4-[4-(2-morpholino-2-oxo-ethyl)piperazin-1-yl]-1-piperidyl]-2-oxo-ethyl]pyrazol-4-yl]pyrazolo[1,5-a]pyrimidine-3-carboxamide], the IC50 in experiment [1] came to 290 nM. The Ki in experiment [2] was determined as 1.3 nM; in experiment [3] it was 0.52 nM.

Regarding `CC(C)Sc1ccc(OC(F)F)c(-c2nn(CC(=O)N3CCC(N4CCOC[C@H]4CO)CC3)cc2NC(=O)c2cnn3cccnc23)c1` [Example 153], the IC50 in experiment [1] came to 110 nM. The Ki in experiment [2] is 0.91 nM; in experiment [3] it was 0.41 nM.

As for `CC(C)Sc1ccc(OC(F)F)c(-c2nn(CC(=O)N3CCC(N(C)CC(=O)N4CCOCC4)CC3)cc2NC(=O)c2cnn3cccnc23)c1` [Example 154, N-[3-[2-(difluoromethoxy)-5-isopropylsulfanyl-phenyl]-1-[2-[4-[methyl-(2-morpholino-2-oxo-ethyl)amino]-1-piperidyl]-2-oxo-ethyl]pyrazol-4-yl]pyrazolo[1,5-a]pyrimidine-3-carboxamide], the IC50 in experiment [1] was 81 nM. Further, the Ki was found to be 1.5 nM in experiment [2] and 0.42 nM in experiment [3].

On to `CC(C)Sc1ccc(OC(F)F)c(-c2nn(CC(=O)N3CCC(N4CCO[C@@H](CO)C4)CC3)cc2NC(=O)c2cnn3cccnc23)c1` [Example 155, N-[3-[2-(difluoromethoxy)-5-isopropylsulfanyl-phenyl]-1-[2-[4-[(2R)-2-(hydroxymethyl)morpholin-4-yl]-1-piperidyl]-2-oxo-ethyl]pyrazol-4-yl]pyrazolo[1,5-a]pyrimidine-3-carboxamide], for which the 50% inhibitory concentration (IC50) in experiment [1] was 48 nM. Also, the Ki was determined as 0.99 nM in experiment [2] and 0.31 nM in experiment [3].

Take `CC(C)Sc1ccc(OC(F)F)c(-c2nn(Cc3cn(C4CCN(C5CCOC5)CC4)nn3)cc2NC(=O)c2cnn3cccnc23)c1` (stereo not drawn) [Example 156, N-[3-[2-(difluoromethoxy)-5-(propan-2-ylsulfanyl)phenyl]-1-([1-[1-(oxolan-3-yl)piperidin-4-yl]-1H-1,2,3-triazol-4-yl]methyl)-1H-pyrazol-4-yl]pyrazolo[1,5-a]pyrimidine-3-carboxamide]: the half-inhibitory concentration (IC50) in experiment [1] was determined as 21 nM. For the same compound, the Ki in experiment [2] was found to be 0.29 nM; in experiment [3], 0.36 nM.

On to `CC(=O)N1CCN(CC2CCN(C(=O)Cn3cc(NC(=O)c4cnn5cccnc45)c(-c4cc(SC(C)C)ccc4OC(F)F)n3)CC2)CC1` [Example 157, N-[1-[2-[4-[(4-acetylpiperazin-1-yl)methyl]-1-piperidyl]-2-oxo-ethyl]-3-[2-(difluoromethoxy)-5-isopropylsulfanyl-phenyl]pyrazol-4-yl]pyrazolo[1,5-a]pyrimidine-3-carboxamide], for which, in experiment [1], the IC50 amounted to 47 nM. Moreover, the Ki in experiment [2] is 0.77 nM; in experiment [3], 0.27 nM.

With `CC(C)Sc1ccc(OC(F)F)c(-c2nn(CC(=O)N3CCC(N4CCOC[C@@H]4CO)CC3)cc2NC(=O)c2cnn3cccnc23)c1` [Example 158, N-[3-[2-(difluoromethoxy)-5-isopropylsulfanyl-phenyl]-1-[2-[4-[(3S)-3-(hydroxymethyl)morpholin-4-yl]-1-piperidyl]-2-oxo-ethyl]pyrazol-4-yl]pyrazolo[1,5-a]pyrimidine-3-carboxamide], the half-inhibitory concentration (IC50) in experiment [1] stood at 91 nM. In addition, the Ki in experiment [2] was 1 nM; in experiment [3], 0.59 nM.

Consider `Cn1cc(NC(=O)c2cnn3cccnc23)c(-c2cc(SC(CF)CF)ccc2OC(F)F)n1` [Example 159, N-[3-[2-(difluoromethoxy)-5-[(1,3-difluoropropan-2-yl)sulfanyl]phenyl]-1-methyl-1H-pyrazol-4-yl]pyrazolo[1,5-a]pyrimidine-3-carboxamide], for which the IC50 in experiment [1] was 3.9 nM. Further, the Ki in experiment [2] worked out at 0.097 nM; in experiment [3], 0.16 nM.

`O=C(Nc1c[nH]nc1-c1cc(SC2CC2)ccc1OC(F)F)c1cnn2cccnc12` [Example 160, N-[3-[5-(cyclopropylsulfanyl)-2-(difluoromethoxy)phenyl]-1H-pyrazol-4-yl]pyrazolo[1,5-a]pyrimidine-3-carboxamide]: the IC50 in experiment [1] is 7.3 nM. The values for the Ki in experiment [2] and in experiment [3] were 0.056 nM and 0.098 nM, respectively.

As for `O=C(Nc1cn(CC(=O)N2CCC(N3CCOCC3)CC2)nc1-c1cc(SC2CC2)ccc1OC(F)F)c1cnn2cccnc12` [Example 161, N-[3-[5-cyclopropylsulfanyl-2-(difluoromethoxy)phenyl]-1-[2-(4-morpholino-1-piperidyl)-2-oxo-ethyl]pyrazol-4-yl]pyrazolo[1,5-a]pyrimidine-3-carboxamide], in experiment [1], the concentration for half-maximal inhibition (IC50) came to 16 nM. The Ki in experiment [2] is 0.64 nM; in experiment [3] it was 0.3 nM.

Consider `O=C(Nc1cn(CC(=O)N2CCC(CN3CCOCC3)CC2)nc1-c1cc(SC2CC2)ccc1OC(F)F)c1cnn2cccnc12` [Example 162, N-[3-[5-cyclopropylsulfanyl-2-(difluoromethoxy)phenyl]-1-[2-[4-(morpholinomethyl)-1-piperidyl]-2-oxo-ethyl]pyrazol-4-yl]pyrazolo[1,5-a]pyrimidine-3-carboxamide], for which, in experiment [1], the IC50 stood at 15 nM. The figures for the inhibitory constant (Ki) in experiment [2] and in experiment [3] were 0.98 nM and 0.42 nM, respectively.

Regarding `O=C(Nc1cn(CC(=O)N2CCN(CCN3CCOCC3)CC2)nc1-c1cc(SC2CC2)ccc1OC(F)F)c1cnn2cccnc12` [Example 163, N-[3-[5-(cyclopropylsulfanyl)-2-(difluoromethoxy)phenyl]-1-(2-[4-[2-(morpholin-4-yl)ethyl]piperazin-1-yl]-2-oxoethyl)-1H-pyrazol-4-yl]pyrazolo[1,5-a]pyrimidine-3-carboxamide], in experiment [1], the IC50 is 24 nM. Also, the Ki in experiment [2] amounted to 0.94 nM; in experiment [3], 0.43 nM.

Regarding `CN1CCN(C2CCN(C(=O)Cn3cc(NC(=O)c4cnn5cccnc45)c(-c4cc(SC5CC5)ccc4OC(F)F)n3)CC2)CC1` [Example 164, N-[3-[5-cyclopropylsulfanyl-2-(difluoromethoxy)phenyl]-1-[2-[4-(4-methylpiperazin-1-yl)-1-piperidyl]-2-oxo-ethyl]pyrazol-4-yl]pyrazolo[1,5-a]pyrimidine-3-carboxamide], the half-maximal inhibitory concentration (IC50) in experiment [1] is 32 nM. Moreover, the inhibition constant (Ki) turned out to be 1.5 nM in experiment [2] and 0.55 nM in experiment [3].

For the compound `O=C(Nc1cn(CC(=O)N2CCN(CC3CCOCC3)CC2)nc1-c1cc(SC2CC2)ccc1OC(F)F)c1cnn2cccnc12` [Example 165, N-[3-[5-cyclopropylsulfanyl-2-(difluoromethoxy)phenyl]-1-[2-oxo-2-[4-(tetrahydropyran-4-ylmethyl)piperazin-1-yl]ethyl]pyrazol-4-yl]pyrazolo[1,5-a]pyrimidine-3-carboxamide], in experiment [1], the 50% inhibitory concentration (IC50) turned out to be 20 nM. Besides, the Ki in experiment [2] is 0.67 nM; in experiment [3], 0.4 nM.

In the case of `N#CC1(CNC2CCN(C(=O)Cn3cc(NC(=O)c4cnn5cccnc45)c(-c4cc(SC5CC5)ccc4OC(F)F)n3)CC2)CC1` [Example 166, N-[1-[2-[4-[(1-cyanocyclopropyl)methylamino]-1-piperidyl]-2-oxo-ethyl]-3-[5-cyclopropylsulfanyl-2-(difluoromethoxy)phenyl]pyraxol-4-yl]pyrazolo[1,5-a]pyrimidine-3-carboxamide], the IC50 in experiment [1] was 17 nM. For the same compound, the inhibition constant (Ki) in experiment [2] stood at 0.72 nM; in experiment [3], 0.29 nM.
